Laboratory results from patent US8575112B2, “Small peptide modulators of potassium channel trafficking” (University of Houston System, priority 2009, dated 2013).

How the values were obtained:
Type in all cases: cell-based
[1] = system: Slo1VEDEC; assay: Cell-surface biotinylation assay, HEK293T cells expressing Myc-Slo1VEDEC, after peptide delivery; details: HEK293T cells expressing Myc-tagged Slo1VEDEC, 1 mg peptide delivered with PULSin, compared to R-PE control
Procedure: (§1) HEK293T (human embryonic kidney) cells were grown in Dulbecco's modified Eagle's medium (Invitrogen) containing heat-inactivated 10% fetal bovine serum (FBS) and penicillin-streptomycin (Invitrogen) at 37° C. in a 5% CO2 incubator. Cells were transiently transfected for 24 to 48 hours using Lipofectamine 2000 (Invitrogen) in the serum-reduced medium OPTI-MEM, Invitrogen) following the manufacturer's instructions. The immortalized and undifferentiated mouse podocyte cell line was grown in RPMI1640 with 10% FBS supplied with 10 U/mL interferon-g (INF-γ) at 33° C. in a 5% CO2 incubator. Podocytes' differentiation was induced by removing INF-γ and switching to 37° C. in a 5% CO2 incubator for 14 days.
(§2) Cell-surface biotinylation was carried out by labeling cells with 1 mg/mL EZ-Link Sulfo-NHS-Biotin reagents (Pierce) in PBS (137 mM NaCl, 10 mM Phosphate, 2.7 mM KCl, pH 7.4) at 4 C with gentle shaking for 1.5 hours, which was followed by incubating the labeled cells in the cold PBS containing 100 mM glycine for additional 20 minutes at 4° C. to stop the reaction. […]
(§3) All samples were loaded and separated on 10% SDS-PAGE. […] Slo1 proteins were detected by primary antibodies, including mouse anti-Myc, mouse anti-HA, rabbit anti-VEDEC, rabbit anti-QEERL, and rabbit anti-Slo1 (APC107, Alomone labs) antibodies, as indicated. […]

[2] = system: Slo1QEERL; assay: Cell-surface biotinylation assay, HEK293T cells expressing Myc-Slo1QEERL, after peptide delivery; details: HEK293T cells expressing Myc-tagged Slo1QEERL by itself; 1 mg peptide delivered with PULSin; compared to R-PE control
Procedure: as §1, §2, §3

[3] = system: endogenous Ca2+-activated K+ channels (BKCa) in podocytes; assay: Whole-cell recordings from differentiated mouse podocytes after peptide delivery
Procedure: FIG. 7A depicts whole cell recording analyses are carried out in differentiated mouse podocytes treated with either R-PE (control) or IREVEDEC (SEQ ID NO: 9) peptides. The recording electrode contained free Ca^2+ of 5 μM and currents are evoked by a series of depolarizing steps from a holding potential of −60 mV. Representative whole-cell current traces are shown above bar graphs Left: R-PE control (Ctrl); Right: IREVEDEC (SEQ ID NO: 9) peptides. […] Asterisk indicates p<0.05.
as §1
Whole cell recordings were performed in HEK293T transiently expressing different Slo1 constructs using standard methods. […]

[4] = system: heterologously and endogenously expressed Slo1 channels; assay: Intracellular delivery of VEDEC-motif peptides, surface expression of Slo1 channels (summary statement); details: intracellular delivery of peptide

Q: Which results are given for “IREVEDEC (Octopetide modulator of Calcium activated Potassium channels) [NH2-IREVEDEC-COOH, octopeptide containing the VEDEC motif, synthesized by Peptide 2.0]”?
A: total expression of Slo1VEDEC [1]: no effect; surface expression of Slo1VEDEC ([1]; densitometry of immunoblots): increases; surface expression of Slo1QEERL [2]: no effect; total expression of Slo1QEERL [2]: no effect; current through Ca2+-activated K+ channels (current density at +60 mV) ([3]; differentiated mouse podocytes, 3 mg octopeptide with PULSin, electrode free Ca2+ 5 μM, vs R-PE control, n=33 cells, p<0.05): large increase; activation or deactivation kinetics of macroscopic currents ([3]; mouse podocytes, whole-cell recording, data not shown): does not alter; surface expression of heterologously and endogenously expressed Slo1 (BKCa) channels [4]: increase
